pIC50: −log10 of the molar value. Entries after “also recorded” stand apart in the source; their conditions may differ.
How the values were obtained:
[1] = test system: C48/80-induced systemic anaphylaxis; assay: Systemic anaphylactic reaction, plasma CCL2; assay type: in vivo, mouse; details: 50 mg/kg b.w., i.p.; C48/80 2 mg/kg i.p.; 4 h; listed as PSB-172656
Procedure: PSB-172656 was further investigated in a mouse model of skin inflammation,[54] determining its effects on C48/80-induced hind paw edema. […] These findings indicate a strong anti-inflammatory effect of the MRGPRX2/B2 antagonist in this mouse model.
30 min after intraperitoneal administration of PSB-172656 at a dose of 50 mg/kg b.w. or vehicle (2% DMSO), an anaphylactic reaction was induced by the intraperitoneal injection of C48/80 at a dose of 2 mg/kg b.w. (in 0.9% NaCl). The non-lethal dose of this compound was assumed based on the literature.[70],[71] The mice were then left in their cages for 4 h. Then, heparin (2500 U/mouse) and sodium thiopental at a dose of 70 mg/kg b.w. were administered intraperitoneally, and blood was collected after decapitation. The plasma concentration of CCL-2 and IL-8 was determined using an ELISA kit (catalog number: E1707Mo, E1481Mo, BT LAB, China).

[2] = target: T1, MRGPRX2 (Homo sapiens, UniProt Q96LB1); assay: β-hexosaminidase release, LAD2 cells; assay type: cell-based; details: versus SP (0.3 µM)
T1 sequence (Q96LB1 1-330): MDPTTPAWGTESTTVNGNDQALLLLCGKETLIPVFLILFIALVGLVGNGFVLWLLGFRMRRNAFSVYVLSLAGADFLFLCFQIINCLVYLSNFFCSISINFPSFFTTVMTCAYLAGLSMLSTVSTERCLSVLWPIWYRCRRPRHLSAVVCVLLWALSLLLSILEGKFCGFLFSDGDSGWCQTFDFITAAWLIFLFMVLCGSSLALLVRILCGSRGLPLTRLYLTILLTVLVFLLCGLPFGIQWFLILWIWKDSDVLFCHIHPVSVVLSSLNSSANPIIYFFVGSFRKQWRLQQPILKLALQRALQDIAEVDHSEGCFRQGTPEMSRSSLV
Procedure: PSB-172656 inhibited MRGPRX2-mediated Ca^2+ mobilization in LAD2 cells (see Supplementary Fig. S4).
Fig. 6 PSB-172656 inhibits MRGPRX2-mediated mast cell degranulation. a LAD2 cells were incubated with buffer (control) or various concentrations of MRGPRX2 antagonist PSB-172656, subsequently exposed to substance P (SP, 0.3 µM), and β-hexosaminidase release was measured. […] Data are expressed as means ± SEM of 3 biological replicates. Statistical significance was determined by one-way ANOVA (Tukey’s multiple comparisons), compared to the effect of SP in the absence of PSB-172656 (P-value*** < 0.001). b Potential cytotoxicity of PSB-172656 was determined in 3-[4,5-dimethylthiazol-2-yl]-2,5-diphenyl tetrazolium bromide (MTT) assays performed on LAD2 cells. Cells were treated with different concentrations of PSB-172656 for 24 h at 37 °C, and the optic density value was determined at 570 nm (the viability of untreated cells corresponds to 100% cell viability). […] Mean fluorescence intensity (MFI) levels of e CD107a and f CD63 are depicted. […] Degranulation is characterized by the release of β-hexosaminidase, expressed as a percentage of the total content. h Human skin MCs were incubated with different concentrations of PSB-172656 for 30 min followed by stimulation with CST-14 (1 µM). […]
Degranulation as determined by β-hexosaminidase release was performed as described previously.[66],[67] […]

[3] = test system: C48/80-induced hind paw edema; assay: Local allergic reaction (hind paw edema); assay type: in vivo, mouse; details: 50 mg/kg b.w., i.p.; C48/80 20 µL of 30 µg/mL into right hind paw; listed as PSB-172656
Procedure: PSB-172656 was further investigated in a mouse model of skin inflammation,[54] determining its effects on C48/80-induced hind paw edema. […] These findings indicate a strong anti-inflammatory effect of the MRGPRX2/B2 antagonist in this mouse model. Mice were given the antagonist PSB-172656 intraperitoneally at a dose of 50 mg/kg b.w. or vehicle (2% DMSO). The volume of the paws (both right (test) and left (control)) was measured using a plethysmometer (7140, UgoBasile, Italy). After 30 min, 20 µL of C48/80 (30 µg/mL) were injected into the right paw and 20 µL of 0.9% NaCl into the left paw. After 15 min, paw thickness was measured again. Mice were then killed by dislocation of cervical vertebrae. The mouse model has been described previously.[54],[69]

Compound: CCc1c(C(C)C)[nH]c2nc3cc(F)c(F)cc3n2c1=O [Compound 24, 3-ethyl-7,8-difluoro-2-isopropylbenzo[4,5]imidazo [1,2-a] pyrimidin-4(1H)-one]
- effect on plasma CCL2 levels [1]: significantly decreased levels of CCL2; also recorded: prevented the dramatic increase in CCL2 levels
- pIC50 [2]: 8.28
- effect on C48/80-induced paw swelling [3]: significant decrease in paw swelling; also recorded: prevents or reduces edema formation

— paper PMC12010006, “Subnanomolar MAS-related G protein-coupled receptor-X2/B2 antagonists with efficacy in human mast cells and disease models” (Signal Transduction and Targeted Therapy, 2025)
